Reference: patent publication US9751885B2, “Cyclopropanamine compound and use thereof” (Takeda Pharmaceutical Company Limited, priority 2012, dated 2017)
pIC50: −log10 of the molar value. Counter-ions that a name gives are not always drawn. Like-named read-outs stand apart in the source and are kept apart here. Marks after values point to notes of the source that are not given here.

Assays:
MAO-A enzyme = MAO-A enzyme (Homo sapiens (Human), UniProt P21397); test: Measurement of MAO-A inhibitory activity (MAO-Glo Assay); format: biochemical
Procedure: The MAO-A inhibitory activity evaluation described below followed the protocol of MAO-Glo (registered trademark) Assay of Promega KK.
A test compound dissolved in 4% DMSO was added by 12.5 μL to 25 μL reaction solution (100 mM HEPES (pH 7.5), 5% glycerol) containing 400 ng of MAO-A enzyme (Sigma-Aldrich Co. LLC.), and the mixture was reacted at room temperature for 10 min. […] After reaction at room temperature for 60 min, Luciferine detection reagent (Promega KK) (50 μL) was added to terminate the reaction. After reaction at room temperature for min with stirring, the luminescence was measured by Envision (PerkinElmer). The MAO-A inhibitory rate (%) of the test compound was calculated by the following formula. inhibitory rate(%)=(1−(test compound count−blank)÷(control−blank))×100
The count of the MAO-A enzyme reaction mixture under compound non-addition conditions is indicated as control, and the count under compound non-addition and MAO-A enzyme non-addition conditions is indicated as blank.

MAO-B enzyme = MAO-B enzyme (Homo sapiens (Human), UniProt P27338); test: Measurement of MAO-B inhibitory activity (MAO-Glo Assay); settings: read-out: MAO-B IC50 value;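 note: luminescence read-out, compound preincubated 10 min with enzyme then reacted 60 min at room temperature, inhibition relative to enzyme reaction without compound, blank lacking enzyme and compound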
Procedure: The MAO-B inhibitory activity evaluation described below followed the protocol of MAO-Glo (registered trademark) Assay of Promega KK.
A test compound dissolved in 4% DMSO was added by 12.5 μL to 25 μL reaction solution (100 mM HEPES (pH 7.5), 5% glycerol, 10% DMSO) containing 400 ng of MAO-B enzyme (Sigma-Aldrich Co. LLC.), and the mixture was reacted at room temperature for 10 min. […] After reaction at room temperature for 60 min, Luciferine detection reagent (Promega KK) (50 μL) was added to terminate the reaction. After reaction at room temperature for 20 min with stirring, the luminescence was measured by Envision (PerkinElmer). The MAO-B inhibitory rate (%) of the test compound was calculated by the following formula. inhibitory rate(%)=(1−(test compound count−blank)÷(control−blank))×100
The count of the MAO-B enzyme reaction mixture under compound non-addition conditions is indicated as control, and the count under compound non-addition and MAO-B enzyme non-addition conditions is indicated as blank.

human LSD1(172-833) = human LSD1(172-833) (Homo sapiens (Human), UniProt O60341); test: Measurement of LSD1 inhibitory activity (time-resolved fluorescence, biotin-histone H3 mono methylated K4 peptide); format: biochemical
How it was run: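 Remaining signal detected by TR-FRET after 60 min with europium anti-histone H3 antibody and streptavidin-XL665 in potassium fluoride/0.1% BSA.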

[1] = system: white blood cell number, red blood cell number, platelet number; test: Evaluation of blood cell number in mouse; format: in vivo; settings: oral, Day 2 after administration
How it was run: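 Male ICR mice dosed orally at 1, 10, 50 or 100 mg/kg (suspension in 0.5% methylcellulose/0.02% citric acid/water); whole blood collected on Day 2. White cell, red cell and platelet counts per unit volume by automated haematology analyser, expressed as % of mean of untreated control group.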

[2] = system: Gad1 H3K4me2 level in rat primary culture neurons; test: Gad1 H3K4 methylation induction activity in rat primary culture neurons (ChIP-qPCR); format: cell-based; settings: Neuron, 72 h, control without compound = 100%
Procedure: Gad1 H3K4 Methylation Induction Activity in Rat Primary Culture Neurons
Thereafter, the compound was added to final concentrations of 1 or 10 μM, and the cells were further cultured for 3 days. The culture supernatant was aspirated, ice-cold PBS was added, and the cell suspension was collected on ice using CELL SCRAPER (IWAKI). […] (750 μL). Furthermore, 0.3% NP40/cell lysis buffer 1 (750 μL) was added, and the cells were lysed by incubating for 5 min on ice.
Using the DNA obtained by the chromatin immunoprecipitation as a template, quantitative PCR of the Gad1 gene upstream genomic region was performed, and the measurement value was taken as the Gad1 H3K4me2 level. […] The Gad1 H3K4me2 induction by the compound was expressed by the H3K4me2 level when the compound was added, as compared to the H3K4me2 level of the control (without addition of the compound) as 100%.

[3] = Evaluation of hippocampal distribution in mouse; format: in vivo; settings: male ICR mice, 10 mg/kg oral; for concentration at 1 h: 1 hr after administration; for concentration at 0.5 h: 0.5 hr after administration
How it was run: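 Male ICR mice dosed orally at 10 mg/kg as suspension in 0.5% methylcellulose/0.02% citric acid/water. Plasma and hippocampus sampled together at 0.5, 1 or 1.5 h; LC/MS/MS concentrations gave hippocampus/plasma ratio.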

[4] = Rattus norvegicus, read-out: Gad1 H3K4me2 induction activity (%), compound 1 μM, 3 days, rat primary culture neurons
[5] = Rattus norvegicus, read-out: Gad1 H3K4me2 induction activity (%), compound 10 μM, 3 days, rat primary culture neurons
[6] = hippocampus, read-out: hippocampus concentration (mean)
[7] = plasma, read-out: plasma concentration (mean)
[8] = compound 1 μM, 3 days, rat primary culture neurons, read-out: Gad1 H3K4me2 induction activity (%)
[9] = compound 10 μM, 3 days, rat primary culture neurons, read-out: Gad1 H3K4me2 induction activity (%)

Chain of MAO-A enzyme (P21397 whole entry): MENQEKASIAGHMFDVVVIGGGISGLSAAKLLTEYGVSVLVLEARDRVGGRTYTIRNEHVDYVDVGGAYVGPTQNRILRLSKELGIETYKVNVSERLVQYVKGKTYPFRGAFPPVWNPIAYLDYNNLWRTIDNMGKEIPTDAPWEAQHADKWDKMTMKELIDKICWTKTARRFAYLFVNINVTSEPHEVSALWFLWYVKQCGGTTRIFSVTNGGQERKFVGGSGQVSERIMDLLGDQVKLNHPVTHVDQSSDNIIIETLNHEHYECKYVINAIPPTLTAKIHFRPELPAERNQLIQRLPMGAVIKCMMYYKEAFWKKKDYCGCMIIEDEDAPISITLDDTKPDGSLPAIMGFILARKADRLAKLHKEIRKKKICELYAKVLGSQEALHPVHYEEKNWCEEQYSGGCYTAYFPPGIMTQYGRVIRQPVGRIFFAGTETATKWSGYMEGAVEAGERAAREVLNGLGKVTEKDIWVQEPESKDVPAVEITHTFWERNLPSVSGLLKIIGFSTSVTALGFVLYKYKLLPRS
Chain of MAO-B enzyme (P27338 whole entry): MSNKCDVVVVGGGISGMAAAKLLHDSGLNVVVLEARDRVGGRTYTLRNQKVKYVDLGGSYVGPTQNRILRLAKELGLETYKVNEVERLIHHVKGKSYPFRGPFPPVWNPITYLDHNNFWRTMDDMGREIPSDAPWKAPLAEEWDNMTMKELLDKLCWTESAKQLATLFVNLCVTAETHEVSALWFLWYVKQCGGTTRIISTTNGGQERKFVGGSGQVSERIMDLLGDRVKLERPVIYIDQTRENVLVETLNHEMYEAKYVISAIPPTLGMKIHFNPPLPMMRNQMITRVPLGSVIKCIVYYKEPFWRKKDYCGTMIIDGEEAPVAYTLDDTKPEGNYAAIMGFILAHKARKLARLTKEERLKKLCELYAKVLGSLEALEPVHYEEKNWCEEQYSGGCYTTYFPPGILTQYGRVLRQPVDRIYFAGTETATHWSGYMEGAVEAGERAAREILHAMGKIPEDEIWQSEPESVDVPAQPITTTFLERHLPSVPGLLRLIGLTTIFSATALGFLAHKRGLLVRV

Structure (SMILES): O=C(Nc1ccc(-c2ncccn2)cc1)c1cccc([C@@H]2C[C@H]2NCC2CC2)c1 (relative stereo) [Example 58, 3-(trans-2-((cyclopropylmethyl)amino)cyclopropyl)-N-(4-(pyrimidin-2-yl)phenyl)benzamide dihydrochloride]
- pIC50 (MAO-A enzyme): < 5.00
- pIC50 (MAO-B enzyme): < 5.00
- pIC50 (human LSD1(172-833)): > 7.00
- platelet number, percentage of compound administration group compared to control group, mean ([1]; 10 mg/kg): 99.4%
- red blood cell number, percentage of compound administration group compared to control group, mean ([1]; 10 mg/kg): 99.7%
- white blood cell number, percentage of compound administration group compared to control group, mean ([1]; 10 mg/kg): 94.2%
- platelet number, percentage of compound administration group compared to control group, mean ([1]; 50 mg/kg): 102.9^a %
- red blood cell number, percentage of compound administration group compared to control group, mean ([1]; 50 mg/kg): 101.3^a %
- white blood cell number, percentage of compound administration group compared to control group, mean ([1]; 50 mg/kg): 85.8^a %
- activity at 1 µM [2, 4]: 126%
- activity at 10 µM [2, 5]: 116%

Structure (SMILES): O=C(Nc1cnn(CC2CC2)c1)c1cccc([C@@H]2C[C@H]2NCC2CC2)c1 (relative stereo) [Example 77, 3-(trans-2-((cyclopropylmethyl)amino)cyclopropyl)-N-(1-(cyclopropylmethyl)-1H-pyrazol-4-yl)benzamide dihydrochloride]
- pIC50 (MAO-A enzyme): < 5.00
- pIC50 (MAO-B enzyme): < 5.00
- pIC50 (human LSD1(172-833)): > 7.00
- platelet number, percentage of compound administration group compared to control group, mean ([1]; 10 mg/kg): 99.6%
- red blood cell number, percentage of compound administration group compared to control group, mean ([1]; 10 mg/kg): 98.2%
- white blood cell number, percentage of compound administration group compared to control group, mean ([1]; 10 mg/kg): 147.9%
- platelet number, percentage of compound administration group compared to control group, mean ([1]; 100 mg/kg): 96.6%
- red blood cell number, percentage of compound administration group compared to control group, mean ([1]; 100 mg/kg): 100.9%
- white blood cell number, percentage of compound administration group compared to control group, mean ([1]; 100 mg/kg): 98.2%
- activity at 1 µM [2, 4]: 165%
- activity at 10 µM [2, 5]: 163%

Structure (SMILES): Cc1cc(NC(=O)c2cccc([C@@H]3C[C@H]3NCC3CC3)c2)on1 (relative stereo) [Example 106, 3-(trans-2-((cyclopropylmethyl)amino)cyclopropyl)-N-(3-methyl-1,2-oxazol-5-yl)benzamide hydrochloride]
- concentration at 1 h [3, 6]: 107 ng/g
- concentration at 1 h [3, 7]: 33 ng/mL
- pIC50 (MAO-A enzyme): < 5.00
- pIC50 (MAO-B enzyme): < 5.00
- pIC50 (human LSD1(172-833)): > 7.00
- platelet number, percentage of compound administration group compared to control group, mean ([1]; 10 mg/kg): 94.6%
- red blood cell number, percentage of compound administration group compared to control group, mean ([1]; 10 mg/kg): 99.4%
- white blood cell number, percentage of compound administration group compared to control group, mean ([1]; 10 mg/kg): 114.8%
- platelet number, percentage of compound administration group compared to control group, mean ([1]; 100 mg/kg): 97.2%
- red blood cell number, percentage of compound administration group compared to control group, mean ([1]; 100 mg/kg): 101.9%
- white blood cell number, percentage of compound administration group compared to control group, mean ([1]; 100 mg/kg): 89.0%
- activity at 1 µM [2, 8]: 139%
- activity at 10 µM [2, 9]: 132%

Structure (SMILES): Cc1nnc(NC(=O)c2ccc(F)c([C@@H]3C[C@H]3NCC3CC3)c2)s1 (relative stereo) [Example 109, 3-(trans-2-((cyclopropylmethyl)amino)cyclopropyl)-4-fluoro-N-(5-methyl-1,3,4-thiadiazol-2-yl)benzamide dihydrochloride]
- concentration at 0.5 h [3, 6]: 1610 ng/g
- concentration at 0.5 h [3, 7]: 1250 ng/mL
- pIC50 (MAO-A enzyme): < 5.00
- pIC50 (MAO-B enzyme): < 5.00
- pIC50 (human LSD1(172-833)): > 7.00
- platelet number, percentage of compound administration group compared to control group, mean ([1]; 10 mg/kg): 94.3%
- red blood cell number, percentage of compound administration group compared to control group, mean ([1]; 10 mg/kg): 96.3%
- white blood cell number, percentage of compound administration group compared to control group, mean ([1]; 10 mg/kg): 88.3%
- platelet number, percentage of compound administration group compared to control group, mean ([1]; 100 mg/kg): 97.8%
- red blood cell number, percentage of compound administration group compared to control group, mean ([1]; 100 mg/kg): 98.2%
- white blood cell number, percentage of compound administration group compared to control group, mean ([1]; 100 mg/kg): 107.4%
- activity at 1 µM [2, 8]: 117%
- activity at 10 µM [2, 9]: 96%

Structure (SMILES): O=C(NC1CCC(F)(F)CC1)c1cccc([C@@H]2C[C@H]2NC2CCOCC2)c1 (relative stereo) [Example 177, N-(4,4-difluorocyclohexyl)-3-(trans-2-(tetrahydro-2H-pyran-4-ylamino)cyclopropyl)benzamide hydrochloride]
- concentration at 1 h [3, 6]: 324 ng/g
- concentration at 1 h [3, 7]: 630 ng/mL
- platelet number, percentage of compound administration group compared to control group, mean ([1]; 10 mg/kg): 101.3%
- red blood cell number, percentage of compound administration group compared to control group, mean ([1]; 10 mg/kg): 94.5%
- white blood cell number, percentage of compound administration group compared to control group, mean ([1]; 10 mg/kg): 136.9%
- platelet number, percentage of compound administration group compared to control group, mean ([1]; 100 mg/kg): 97.4%
- red blood cell number, percentage of compound administration group compared to control group, mean ([1]; 100 mg/kg): 99.0%
- white blood cell number, percentage of compound administration group compared to control group, mean ([1]; 100 mg/kg): 97.1%
- activity at 1 µM [2, 4]: 340%
- activity at 10 µM [2, 5]: 200%

Structure (SMILES): O=C(NC1CCOCC1)c1cccc([C@@H]2C[C@H]2NC2CCC2)c1 (relative stereo) [Example 179, 3-(trans-2-(cyclobutylamino)cyclopropyl)-N-(tetrahydro-2H-pyran-4-yl)benzamide hydrochloride]
- concentration at 0.5 h [3, 6]: 321 ng/g
- concentration at 0.5 h [3, 7]: 421 ng/mL
- platelet number, percentage of compound administration group compared to control group, mean ([1]; 10 mg/kg): 94.8%
- red blood cell number, percentage of compound administration group compared to control group, mean ([1]; 10 mg/kg): 102.5%
- white blood cell number, percentage of compound administration group compared to control group, mean ([1]; 10 mg/kg): 94.2%
- platelet number, percentage of compound administration group compared to control group, mean ([1]; 100 mg/kg): 92.5%
- red blood cell number, percentage of compound administration group compared to control group, mean ([1]; 100 mg/kg): 100.4%
- white blood cell number, percentage of compound administration group compared to control group, mean ([1]; 100 mg/kg): 121.2%
- activity at 1 µM [2, 4]: 175%
- activity at 10 µM [2, 5]: 123%

Structure (SMILES): Cn1cc(NC(=O)c2cc([C@@H]3C[C@H]3NC3CCC(F)(F)CC3)ccc2F)cn1 (relative stereo) [Example 186, 5-(trans-2-((4,4-difluorocyclohexyl)amino)cyclopropyl)-2-fluoro-N-(1-methyl-1H-pyrazol-4-yl)benzamide hydrochloride]
- concentration at 0.5 h [3, 6]: 3120 ng/g
- concentration at 0.5 h [3, 7]: 1320 ng/mL
- platelet number, percentage of compound administration group compared to control group, mean ([1]; 10 mg/kg): 93.1%
- red blood cell number, percentage of compound administration group compared to control group, mean ([1]; 10 mg/kg): 101.5%
- white blood cell number, percentage of compound administration group compared to control group, mean ([1]; 10 mg/kg): 129.3%
- platelet number, percentage of compound administration group compared to control group, mean ([1]; 100 mg/kg): 88.2%
- red blood cell number, percentage of compound administration group compared to control group, mean ([1]; 100 mg/kg): 99.2%
- white blood cell number, percentage of compound administration group compared to control group, mean ([1]; 100 mg/kg): 111.2%
- activity at 1 µM [2, 4]: 239%
- activity at 10 µM [2, 5]: 191%

Structure (SMILES): Cc1ncc(NC(=O)c2cccc([C@@H]3C[C@H]3NC3CCOCC3)c2)s1 (relative stereo) [Example 212, N-(2-methyl-1,3-thiazol-5-yl)-3-(trans-2-(tetrahydro-2H-pyran-4-ylamino)cyclopropyl)benzamide dihydrochloride]
- pIC50 (MAO-A enzyme): < 5.00
- pIC50 (MAO-B enzyme): < 5.00
- pIC50 (human LSD1(172-833)): > 7.00
- activity at 1 µM [2, 8]: 201%
- activity at 10 µM [2, 9]: 289%
